Source: paper PMC4014698 (Pharmaceuticals, 2014)
In brackets after ≈: the same amount, converted by molar mass. Non-standard residues stand in square brackets, D forms with d. Residues, ends and D or L forms follow the SMILES beside them.

How the values were obtained:
[1] = system: A. baumannii strain 964; assay type: cell-based, Acinetobacter baumannii; conditions: source throat; Mueller-Hinton medium, 37 °C, 24 h, 5 × 10^5 CFU/mL; three sets of determinations
From the text: (§1) All the A. baumannii strains used in this study were (1) obtained from the collection of Dr. Anthony A. Campagnari at the University of Buffalo and originally isolated from different patients and organs/tissues (strain 649, blood; strain 689, groin; strain 759, gluteus; strain 821, urine; strain 884, axilla; strain 899, perineum; strain 964, throat; strain 985, pleural fluid and strain 1012, sputum); (2) were purchased from the American Type Culture Collection (ATCC, Manassas, VA, USA) (strain ATCC 17978, fatal meningitis; and strain ATCC 19606, urine).
(§2) The minimal inhibitory concentration (MIC) is defined as the lowest peptide concentration that inhibited bacterial growth. MICs were measured by a standard microtiter dilution method in Mueller Hinton (MH) medium. Briefly, cells were grown overnight at 37 °C in MH broth and were diluted in the same medium. Serial dilutions of the peptides were added to the microtiter plates in a volume of 50 µL, followed by the addition of 50 µL of bacteria to give a final inoculum of 5 × 10^5 colony-forming units (CFU)/mL. The plates were incubated at 37 °C for 24 h, and the MICs were determined.

[2] = system: A. baumannii strain 1012; assay type: cell-based, Acinetobacter baumannii; conditions: source sputum; Mueller-Hinton medium, 37 °C, 24 h, 5 × 10^5 CFU/mL; three sets of determinations
From the text: as §1, §2

[3] = system: A. baumannii strain ATCC 17978; assay type: cell-based, Acinetobacter baumannii; conditions: ATCC 17978, 24 h
From the text: as §1, §2

[4] = system: A. baumannii strain 689; assay type: cell-based, Acinetobacter baumannii; conditions: source groin; Mueller-Hinton medium, 37 °C, 24 h, 5 × 10^5 CFU/mL; three sets of determinations
From the text: as §1, §2

[5] = system: A. baumannii strain 985; assay type: cell-based, Acinetobacter baumannii; conditions: source pleural fluid; Mueller-Hinton medium, 37 °C, 24 h, 5 × 10^5 CFU/mL; three sets of determinations
From the text: as §1, §2

[6] = system: A. baumannii strain 899; assay type: cell-based, Acinetobacter baumannii; conditions: source perineum; Mueller-Hinton medium, 37 °C, 24 h, 5 × 10^5 CFU/mL; three sets of determinations
From the text: as §1, §2

[7] = system: human erythrocytes; assay: Hemolytic activity (HC50); assay type: cell-based; conditions: for Hemolytic activity HC50: concentration giving 50% hemolysis after 18 h at 37 °C, 1% human erythrocytes in PBS pH 7.4, hemoglobin release at 570 nm, 100% control water (Figure 7)
Experimental: Hemoglobin release was determined spectrophotometrically at 570 nm.
From these plots, the HC50 values, the peptide concentration that produces 50% hemolysis of human red blood cells after 18 hours in the standard microtiter dilution method was determined.

[8] = system: Acinetobacter baumannii (11 different isolates); assay type: cell-based; conditions: geometric mean of the MIC values from 11 different isolates of A. baumannii; Table 3A
From the text: as §1, §2
Antibacterial activities against six strains of P. aeruginosa and eleven strains of A. baumannii are compared in Table 3. Geometric mean of MIC values was calculated to provide an overall view of antimicrobial activity of different analogs. It is clear that our peptides were effective in killing the microorganisms tested. Compared to a dramatic reduction in hemolytic activity, antibacterial activity of D-piscidin 1 and D-dermaseptin S4 analogs against eleven strains of A. baumannii maintained the same level (within 2-fold) upon the substitution of “specificity determinant(s)” (Table 3).

[9] = system: P. aeruginosa strain CP204; conditions: source cystic fibrosis patient; Mueller-Hinton medium, 37 °C, 24 h, 5 × 10^5 CFU/mL; three sets of determinations
From the text: (§3) P. aeruginosa strains used are as follows: strain PAO1 was isolated from a human wound in 1955 in Australia; strain WR5 was isolated from a burn patient at Walter Reed Army Hospital, Washington, DC, USA, in 1976 and is a natural toxA^− mutant, but is virulent in experimental mouse models; strain PAK was originally isolated at Memorial University, St. John’s, Newfoundland, Canada, and is widely used in the analysis of pili; strain PA14 was originally isolated as a clinical isolate in 1995 at the Massachusetts General Hospital, Boston, MA, USA and is virulent in a variety of plant and animal models of infection; strain M2 was originally isolated in 1975 from the gastrointestinal tract of a healthy CF1 mouse, University of Cincinnati College of Medicine, and Shriners Burns Institute, Cincinnati, OH, USA and is virulent in a burn mouse model of P. aeruginosa infection; and strain CP204 was isolated from a cystic fibrosis patient in 1989 at the National Jewish Medical and Research Center, Denver, CO, USA. All strains have been maintained at −80 °C in the laboratory of Michael Vasil, University of Colorado, School of Medicine.
(§4) The minimal inhibitory concentration (MIC) is defined as the lowest peptide concentration that inhibited bacterial growth. MICs were measured by a standard microtiter dilution method in Mueller Hinton (MH) medium. Briefly, cells were grown overnight at 37 °C in MH broth and were diluted in the same medium. […] The plates were incubated at 37 °C for 24 h, and the MICs were determined.

[10] = system: P. aeruginosa strain PAK; conditions: Mueller-Hinton medium, 37 °C, 24 h, 5 × 10^5 CFU/mL; three sets of determinations
From the text: as §3, §4

[11] = system: P. aeruginosa strain WR5; conditions: source burn patient; Mueller-Hinton medium, 37 °C, 24 h, 5 × 10^5 CFU/mL; three sets of determinations
From the text: as §3, §4

[12] = system: P. aeruginosa strain M2; conditions: source burn mouse model; Mueller-Hinton medium, 37 °C, 24 h, 5 × 10^5 CFU/mL; three sets of determinations
From the text: as §3, §4

[13] = system: P. aeruginosa strain PA14; conditions: Mueller-Hinton medium, 37 °C, 24 h, 5 × 10^5 CFU/mL; three sets of determinations
From the text: as §3, §4

[14] = system: P. aeruginosa strain PAO1; conditions: source human wound; Mueller-Hinton medium, 37 °C, 24 h, 5 × 10^5 CFU/mL; three sets of determinations
From the text: as §3, §4

[15] = system: A. baumannii strain 759; assay: MIC, microtiter dilution; assay type: cell-based, Acinetobacter baumannii; conditions: source gluteus; Mueller-Hinton medium, 37 °C, 24 h, 5 × 10^5 CFU/mL; three sets of determinations
From the text: as §1, §2

[16] = system: A. baumannii strain ATCC 19606; assay: MIC, microtiter dilution; assay type: cell-based, Acinetobacter baumannii; conditions: source urine; Mueller-Hinton medium, 37 °C, 24 h, 5 × 10^5 CFU/mL; three sets of determinations
From the text: as §1, §2

[17] = system: A. baumannii strain 649; assay: MIC, microtiter dilution; assay type: cell-based, Acinetobacter baumannii; conditions: source blood; Mueller-Hinton medium, 37 °C, 24 h, 5 × 10^5 CFU/mL; three sets of determinations
From the text: as §1, §2

[18] = system: A. baumannii strain 884; assay: MIC, microtiter dilution; assay type: cell-based, Acinetobacter baumannii; conditions: source axilla; Mueller-Hinton medium, 37 °C, 24 h, 5 × 10^5 CFU/mL; three sets of determinations
From the text: as §1, §2

[19] = system: A. baumannii strain 821; assay: MIC, microtiter dilution; assay type: cell-based, Acinetobacter baumannii; conditions: source urine; Mueller-Hinton medium, 37 °C, 24 h, 5 × 10^5 CFU/mL; three sets of determinations
From the text: as §1, §2

[20] = system: Pseudomonas aeruginosa (6 different isolates); conditions: geometric mean of the MIC values from 6 different isolates of P. aeruginosa; Table 3B
From the text: as §3, §4
Geometric mean of MIC values was calculated to provide an overall view of antimicrobial activity of different analogs.

| SMILES | MIC 964 [1] [µM] | MIC 1012 [2] [µM] | MIC ATCC17978 [3] [µM] | MIC 689 [4] [µM] | MIC 985 [5] [µM] | MIC 899 [6] [µM] | Hemolytic activity HC50 [7] [µM] | MIC GM [8] [µM] | MIC CP204 [9] [µM] | MIC PAK [10] [µM] | MIC WR5 [11] [µM] | MIC M2 [12] [µM] | MIC PA14 [13] [µM] | MIC PAO1 [14] [µM] | MIC 759 [15] [µM] | MIC ATCC19606 [16] [µM] | MIC 649 [17] [µM] | MIC 884 [18] [µM] | MIC 821 [19] [µM] | MIC GM [20] [µM] | other results |
| --- | --- | --- | --- | --- | --- | --- | --- | --- | --- | --- | --- | --- | --- | --- | --- | --- | --- | --- | --- | --- | --- |
| CSCC[C@@H](NC(=O)[C@@H](Cc1c[nH]c2ccccc12)NC(=O)[C@@H](CC(C)C)NC(=O)[C@@H](C)N)C(=O)N[C@@H](C(=O)N[C@H](CC(C)C)C(=O)N[C@H](CCCCN)C(=O)N[C@H](CCCCN)C(=O)N[C@H](CCCCN)C(=O)N[C@@H](C(=O)N[C@H](CC(C)C)C(=O)N[C@H](CCCCN)C(=O)N[C@H](C)C(=O)N[C@H](CCCCN)C(=O)N[C@H](C)C(=O)N[C@H](CCCCN)C(=O)N[C@H](C)C(=O)N[C@H](CC(C)C)C(=O)N[C@H](CC(N)=O)C(=O)N[C@H](C)C(=O)N[C@@H](C(=O)N[C@H](CC(C)C)C(=O)N[C@@H](C(=O)NCC(=O)N[C@H](C)C(=O)N[C@H](CC(N)=O)C(=O)N[C@H](C)C(N)=O)C(C)C)C(C)C)C(C)C)[C@H](C)O [D-Dermaseptin S4 L7K,A14K] (H-[dA][dL][dW][dM][dT][dL][dK][dK][dK][dV][dL][dK][dA][dK][dA][dK][dA][dL][dN][dA][dV][dL][dV]G[dA][dN][dA]-NH2) | 2.7 (≈ 7.7 µg/mL) | 2.7 (≈ 7.7 µg/mL) | 0.7 (≈ 2 µg/mL) | 0.7 (≈ 2 µg/mL) | 0.7 (≈ 2 µg/mL) | 1.4 (≈ 3.99 µg/mL) | 241 | 1.1 (≈ 3.14 µg/mL) | 1.4 (≈ 3.99 µg/mL) | 1.4 (≈ 3.99 µg/mL) | 11.0 (≈ 31.4 µg/mL) | 21.9 (≈ 62.4 µg/mL) | 5.5 (≈ 15.7 µg/mL) | 5.5 (≈ 15.7 µg/mL) | 1.4 (≈ 3.99 µg/mL) | 0.7 (≈ 2 µg/mL) | 0.7 (≈ 2 µg/mL) | 1.4 (≈ 3.99 µg/mL) | 0.7 (≈ 2 µg/mL) | 4.9 (≈ 14 µg/mL) | – |
| CSCC[C@@H](NC(=O)[C@@H](Cc1c[nH]c2ccccc12)NC(=O)[C@@H](CC(C)C)NC(=O)[C@@H](C)N)C(=O)N[C@@H](C(=O)N[C@H](CC(C)C)C(=O)N[C@H](CC(C)C)C(=O)N[C@H](CCCCN)C(=O)N[C@H](CCCCN)C(=O)N[C@@H](C(=O)N[C@H](CC(C)C)C(=O)N[C@H](CCCCN)C(=O)N[C@H](C)C(=O)N[C@H](C)C(=O)N[C@H](C)C(=O)N[C@H](CCCCN)C(=O)N[C@H](C)C(=O)N[C@H](CC(C)C)C(=O)N[C@H](CC(N)=O)C(=O)N[C@H](C)C(=O)N[C@@H](C(=O)N[C@H](CC(C)C)C(=O)N[C@@H](C(=O)NCC(=O)N[C@H](C)C(=O)N[C@H](CC(N)=O)C(=O)N[C@H](C)C(N)=O)C(C)C)C(C)C)C(C)C)[C@H](C)O [D-Dermaseptin S4] (H-[dA][dL][dW][dM][dT][dL][dL][dK][dK][dV][dL][dK][dA][dA][dA][dK][dA][dL][dN][dA][dV][dL][dV]G[dA][dN][dA]-NH2) | 1.4 (≈ 3.89 µg/mL) | 2.8 (≈ 7.78 µg/mL) | 2.8 (≈ 7.78 µg/mL) | 1.4 (≈ 3.89 µg/mL) | 0.7 (≈ 1.94 µg/mL) | 1.4 (≈ 3.89 µg/mL) | 0.6 | 1.8 (≈ 5 µg/mL) | 11.3 (≈ 31.4 µg/mL) | 11.3 (≈ 31.4 µg/mL) | 11.3 (≈ 31.4 µg/mL) | 11.3 (≈ 31.4 µg/mL) | 22.5 (≈ 62.5 µg/mL) | 11.3 (≈ 31.4 µg/mL) | 1.4 (≈ 3.89 µg/mL) | 2.8 (≈ 7.78 µg/mL) | 1.4 (≈ 3.89 µg/mL) | 2.8 (≈ 7.78 µg/mL) | 2.8 (≈ 7.78 µg/mL) | 12.6 (≈ 35 µg/mL) | Hemolytic activity Fold improvement in HC50 [7]: 1.0 fold |
| CC[C@@H](C)[C@@H](NC(=O)CNC(=O)[C@@H](CCCNC(=N)N)NC(=O)[C@@H](Cc1ccccc1)NC(=O)[C@H](NC(=O)[C@@H](Cc1c[nH]cn1)NC(=O)[C@@H](Cc1c[nH]cn1)NC(=O)[C@@H](Cc1ccccc1)NC(=O)[C@H](N)Cc1ccccc1)[C@H](C)CC)C(=O)N[C@@H](C(=O)N[C@H](Cc1c[nH]cn1)C(=O)N[C@@H](C(=O)N[C@H](CCCCN)C(=O)N[C@H](CCCCN)C(=O)N[C@@H](C(=O)N[C@@H](C(=O)N[C@H](Cc1c[nH]cn1)C(=O)N[C@H](CCCNC(=N)N)C(=O)N[C@H](CC(C)C)C(=O)N[C@@H](C(=O)N[C@@H](C(=O)NCC(N)=O)[C@H](C)O)C(C)C)[C@H](C)CC)[C@H](C)O)C(C)C)C(C)C [D-Piscidin 1 G13K] (H-[dF][dF][dH][dH][dI][dF][dR]G[dI][dV][dH][dV][dK][dK][dT][dI][dH][dR][dL][dV][dT]G-NH2) | 5.9 (≈ 15.6 µg/mL) | 5.9 (≈ 15.6 µg/mL) | 5.9 (≈ 15.6 µg/mL) | 5.9 (≈ 15.6 µg/mL) | 3.0 (≈ 7.93 µg/mL) | 5.9 (≈ 15.6 µg/mL) | 7.0 | 5.2 (≈ 13.7 µg/mL) | 47.3 (≈ 125 µg/mL) | 11.8 (≈ 31.2 µg/mL) | 23.7 (≈ 62.6 µg/mL) | 11.8 (≈ 31.2 µg/mL) | 23.7 (≈ 62.6 µg/mL) | 23.7 (≈ 62.6 µg/mL) | 5.9 (≈ 15.6 µg/mL) | 5.9 (≈ 15.6 µg/mL) | 3.0 (≈ 7.93 µg/mL) | 5.9 (≈ 15.6 µg/mL) | 5.9 (≈ 15.6 µg/mL) | 21.1 (≈ 55.8 µg/mL) | – |
